Results taken from patent publication US10662168B2, “Compounds for treating parasitic infections” (University of Maryland, College Park, priority 2015, dated 2020).
Read-outs that look alike come from different tables or passages of the source.

Tests used:
[1] = tested on: intracellular forms of Leishmania (L. amazonensis amastigotes in BMDMs); conditions: benchmark value; read-out: IC50 against intra-macrophage L. amazonensis; cited from earlier work
[2] = tested on: intracellular L. donovani; conditions: cited from earlier work
[3] = tested on: intracellular forms of Leishmania (L. amazonensis amastigotes in BMDMs); assay: Dose response in BMDMs infected with L. amazonensis amastigotes, released amastigotes transformed to promastigotes, AlamarBlue; assay type: cell-based
Protocol: (§1) FIG. 5. Dose response curves (IC50) of FX40 (∘) and the novel derivative compound FX104 (●). (A) BMDMs infected with L. amazonensis amastigotes were treated with various concentrations of the indicated compound for 72 h. BMDMs were lysed and released amastigotes were transformed to promastigotes for 48 h at 26° C. IC50 values were calculated by quantitation of % promastigote growth using AlamarBlue. (B) Dose response of uninfected BMDMs to compounds. (C) A table showing selectivity criteria for drug efficacy studies. (D) A table showing a summary of high throughput screening.
(§2) To validate the […] efficacy of lead compounds against intracellular amastigotes in macrophages, primary bone marrow-derived macrophages (BMDMs) from mice were obtained and infected them with L. amazonensis amastigotes followed by incubation for 72 h with LHR1 antagonists or amphotericin B which kills intracellular Leishmania, as a positive control. Cells were then fixed and stained with DAPI which permits visualization of the host macrophage nuclei and parasite nuclei and kinetoplasts. Images collected with fluorescent microscopy were used to determine the ratio between total number of parasites and total number of host cells per treatment. Toxicity to host cells were measured by AlamarBlue viability assays. […] (Sch. 1 and FIG. 4A) The structure of FX104 is shown in Scheme 1.

[4] = Drug-like parameters: Log P and solubility; assay type: physicochemical
[5] = tested on: BMDMs; assay: Toxicity to uninfected host BMDMs (AlamarBlue viability); assay type: cell-based, mouse; conditions: even at 40-fold greater concentrations
Protocol: as §1, §2

[6] = Drug-like parameters: absorption and metabolic stability; assay type: in vitro ADME
[7] = molecular target: P-gp (Homo sapiens, UniProt P08183); assay: Drug-like parameters: P-gp efflux; assay type: in vitro ADME
Sequence of P-gp (P08183 whole entry): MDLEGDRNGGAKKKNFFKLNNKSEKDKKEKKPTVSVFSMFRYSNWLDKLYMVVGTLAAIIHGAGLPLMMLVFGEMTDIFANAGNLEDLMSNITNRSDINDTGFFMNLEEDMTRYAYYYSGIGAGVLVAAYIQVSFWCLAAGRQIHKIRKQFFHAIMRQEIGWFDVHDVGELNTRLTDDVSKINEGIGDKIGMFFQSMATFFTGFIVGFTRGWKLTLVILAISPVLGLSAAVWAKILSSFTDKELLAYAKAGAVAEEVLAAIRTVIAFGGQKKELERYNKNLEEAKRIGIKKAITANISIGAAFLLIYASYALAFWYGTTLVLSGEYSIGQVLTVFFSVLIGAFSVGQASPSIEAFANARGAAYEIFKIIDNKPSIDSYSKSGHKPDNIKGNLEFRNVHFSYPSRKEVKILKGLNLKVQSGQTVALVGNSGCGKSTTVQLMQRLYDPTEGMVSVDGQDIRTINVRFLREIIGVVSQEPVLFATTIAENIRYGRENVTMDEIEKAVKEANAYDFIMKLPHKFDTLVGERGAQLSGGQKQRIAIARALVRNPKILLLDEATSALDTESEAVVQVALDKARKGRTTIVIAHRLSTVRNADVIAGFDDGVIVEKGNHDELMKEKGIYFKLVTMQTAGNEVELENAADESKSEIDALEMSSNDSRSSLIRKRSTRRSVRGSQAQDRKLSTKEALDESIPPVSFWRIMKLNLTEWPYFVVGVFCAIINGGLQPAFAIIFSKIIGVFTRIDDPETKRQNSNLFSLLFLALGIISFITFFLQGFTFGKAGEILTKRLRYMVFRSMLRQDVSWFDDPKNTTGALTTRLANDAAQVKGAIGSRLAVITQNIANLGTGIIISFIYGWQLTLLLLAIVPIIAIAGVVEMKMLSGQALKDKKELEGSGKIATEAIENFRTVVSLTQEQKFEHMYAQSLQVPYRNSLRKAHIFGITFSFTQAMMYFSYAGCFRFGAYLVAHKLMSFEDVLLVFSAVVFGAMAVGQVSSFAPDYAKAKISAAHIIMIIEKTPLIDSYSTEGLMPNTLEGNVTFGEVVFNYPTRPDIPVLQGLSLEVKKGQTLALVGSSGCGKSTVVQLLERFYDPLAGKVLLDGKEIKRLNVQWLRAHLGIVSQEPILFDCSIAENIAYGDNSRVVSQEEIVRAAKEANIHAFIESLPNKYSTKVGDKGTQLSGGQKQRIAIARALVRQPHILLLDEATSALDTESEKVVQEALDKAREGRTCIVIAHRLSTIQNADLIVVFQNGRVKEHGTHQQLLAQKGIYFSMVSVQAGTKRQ

| solubility [4] | absorption [6] | metabolic stability [6] | P-gp efflux [7] | Structure (SMILES) | IC50 [1] [nM] | IC50 ([2]; benchmark value, read-out: IC50 for intra-macrophage L. donovani) [nM] | efficacy ([2]; benchmark, intra-macrophage Leishmania) [%] | IC50 ([3]; BMDM, BMDMs infected with L. amazonensis amastigotes, 72 h, read-out: IC50 against intracellular forms of Leishmania) [nM] | fold more effective against intracellular forms of Leishmania than FX40 ([3]; FX104 versus FX40) | toxicity in BMDMs [5] |
| --- | --- | --- | --- | --- | --- | --- | --- | --- | --- | --- |
| – | – | – | – | C[C@@H]1[C@H](O)[C@@H](C)/C=C/C=C/C=C/C=C/C=C/C=C/C=C/[C@H](O[C@@H]2O[C@H](C)[C@@H](O)[C@H](N)[C@@H]2O)C[C@@H]2O[C@](O)(C[C@@H](O)C[C@@H](O)[C@H](O)CC[C@@H](O)C[C@@H](O)CC(=O)O[C@H]1C)C[C@H](O)[C@H]2C(=O)O [Amphotericin B] | 50 to 100 | 20 to 60 | > 90 | – | – | – |
| better | better | better | decreased | Cc1ccc([C@]2(NCCN(C)C)OC(=O)c3cccc(F)c32)cc1C [FX104] | – | – | – | 250 | over 30 fold | little or no toxicity |
